# Patent publication US20250283871A1, “COMPOSITIONS AND METHODS FOR MODULATING THE INTERACTION BETWEEN SS18-SSX FUSION ONCOPROTEIN AND NUCLEOSOMES” (Dana-Farber Cancer Institute, Inc., priority 2020, published 2025)
# “And” between values parts separate entries of the source, which are not always exact repeats. Equal values may be shown once.
# What was measured:
# [1] = tested on: mammalian mononucleosomes from HEK293T cells; assay: Protein and peptide pull downs with mammalian mononucleosomes; assay type: binding, human; settings: for nucleosome binding in pull-down: mammalian mononucleosomes
# Description: (§1) The flow through was removed, the immobilized bait was incubated with 1-2 μg of purified mammalian mono-nucleosomes from HEK293T cells, recombinant mono-nucleosomes (EpiCypher, 16-0006), recombinant H2AK119Ub mono-nucleosomes (EpiCypher, 16-0020) or recombinant protein for 3 hours at 4° C., and the beads were washed 3× with EB150 buffer and then eluted in 2×LDS with 200 mM DTT with heating at 95° C. for 5 minutes. The pull downs were then visualized by immunoblot analysis or colloidal blue staining.
# Mammalian mononucleosomes were purified from HEK293T cells similar to as previously described (Mashtalir et al. (2014) Mol. Cell 54:392-406). Cells were scraped from plates, washed with cold PBS, and centrifuged at 5,000 rpm for 5 min at 4° C. Pellets were resuspended in hypotonic buffer (EBO: 50 mM Tris HCl, pH 7.5, 1 mM EDTA, 1 mM MgCl2, 0.1% NP40 supplemented with 1 mM DTT, 1 mM PMSF, and protease inhibitor cocktail (Roche, C756U27) and incubated for 5 min on ice. The suspension was centrifuged at 5,000 rpm for 5 min at 4° C., and pellets were resuspended in 5 volumes of EB420 (EBO: 50 mM Tris HCl, pH 7.5, 420 mM NaCl, 1 mM MgCl2, 0.1% NP40 with supplemented with 1 mM DTT and 1 mM PMSF containing protease inhibitor cocktail (Roche, C756U27). Homogenate incubated on rotator for 1 hour at 4° C. The supernatant was then centrifuged at 20,000 rpm (30,000×g) for 1 hour at 4° C. using a SW32Ti rotor. Supernatant was then discarded and chromatin pellet was washed in MNAse buffer (20 mM Tris-HCl pH 7.5, 100 mM KCl, 2 mM MgCl2, 1 mM CaCl2, […] sucrose, 0.1% NP-40, and protease inhibitor cocktail) three times. Following MNase treatment (3 U/mL for 30 min at room temperature, Sigma-Aldrich), the reaction was quenched with 5 mM of EGTA and 5 mM of EDTA. The samples were then centrifuged at 20,000×g for 1 hour at 4° C. to obtain the soluble chromatin fraction. Soluble chromatin fraction was loaded onto 10-30% glycerol gradient (Mashtalir et al. (2014) Mol. Cell 54:392-406) and fractions containing mononucleosomes were isolated and concentrated using centrifugal filter (Amicon, EMD Millipore).
# nucleosome acidic patch = assay: Detection of nucleosome acidic patch interactions by photocrosslinking; assay type: binding; settings: diazirine probes in nucleosome acidic patch
# Description: Briefly, diazirine-containing recombinant nucleosomes (0.5 uM) were incubated with biotinylated SSX peptides (12.5 uM) in binding buffer (20 mM HEPES, pH 7.9, 4 mM Tris, pH 7.5, 150 mM KCl, 10 mM MgCl2, 10% glycerol, and 0.02% (v/v) IGEPAL CA-630) at 30° C. for 30 mins, and cooled on ice for 5 mins. The reaction mixtures were then irradiated at 365 nm for 10 minutes. Reactions were then analyzed by western blotting employing IRDye® 800CW streptavidin on a LI-COR Odyssey® Infrared Imager. Additional details are found in Dao et al. (2019) Nat.
# IMR90 fibroblasts = assay: Peptide hybridization assay; assay type: cell-based; settings: methanol-fixed IMR90 fibroblasts, co-stain H2A K119Ub
# Description: IMR90 fibroblasts were grown on coverslips, washed with PBS and fixed using 100% ice-cold methanol for 3 minutes. Coverslips were then washed with IF wash buffer (PBS 0.1% NP40 1 mM Sodium azide) 3 times. Selected groups were treated with 200 ng/ml of recombinant USP2 catalytic domain (Boston biochem) for 1 hour. Coverslips were then washed 3 times with IF wash buffer and incubated with 2 μM of biotinylated peptides. Coverslips were subsequently washed 3 times with IF wash buffer and fixed in 3% PFA-PBS for 20 minutes. The rest of the procedure followed accordingly to standard IF protocol. In brief, following incubation with primary antibodies, the Anti-rabit Alexa Fluor® 594 and Streptavidin Alexa Fluor® 488 (Life Technologies) secondary antibodies/reagent were used for visualization of primary antibodies or biotinylated peptides. Staining with 4′,6-diamidino-2-phenylindole (DAPI) was used to visualize nuclei. Images were acquired using Zeiss Axio Imager Z2 microscope and images were processed using ImageJ program (NIH).
# [2] = tested on: recombinant H2AK119Ub mono-nucleosomes; assay: Pull downs with WT or H2A K119Ub nucleosomes; assay type: binding
# Description: as §1
# [3] = tested on: acidic patch mutant nucleosomes (D90N, E92K, and E113K); assay: GST-SSX pull down with acidic patch mutant nucleosomes; assay type: binding; settings: H2A D90N, H3 immunoblot
# Description: as §1
# [4] = tested on: WT, H2AUb or H2BUb nucleosomes; assay: AlphaLisa binding assay with biotinylated nucleosomes; settings: 10 nM biotinylated nucleosomes
# Barr bodies (inactive X) = assay: Immunofluorescence, Barr body localization; assay type: cell-based, human; settings: immunofluorescence
# Description: Immunofluorescent images were obtained as previously described (Daou et al. (2011) Pro. Nat. Acad. Sci. U.S.A 108:2747-2752). Following lentiviral infection and/or drug treatment, cells were prepared by fixation in 3% PFA-PBS and then were permeabilized with PBS 0.1% NP40. Following incubation with primary antibodies, the Anti-rabbit Alexa Fluor® 594 and Anti-mouse Alexa Fluor® 488 (Life Technologies) secondary antibodies were used for visualization. Staining with 4′,6-diamidino-2-phenylindole (DAPI) was used to visualize nuclei. Images were acquired using Zeiss Axio Imager Z2 microscope and images were processed using ImageJ program (NIH).
# SYO-1 SS cells = assay: Cell proliferation assay; assay type: cell-based, human; settings: SYO-1, rescue with variant
# Description: To measure cell proliferation following lentiviral infection, 2.5×10^4 cells per well were seeded in 12-well plates following 48-hour exposure to lentivirus and 5-day selection with puromycin or blasticidin, with Day 7 denoting the day cells were plated after infection and selection. The cell viability in three wells was then measured using a Vi-CELL™ Cell Counter (Beckman, Brea, CA) every 72 hours.
# [5] = target: T1, mammalian mononucleosomes from HEK-293T cells (Homo sapiens, UniProt P0C0S5); assay: Quantitative targeted mass spectrometry of histone marks on MBP-SSX1 78aa-bound nucleosomes (Tables 6A-6C); assay type: binding; settings: SSX1 pulldown, HEK293T nucleosomes; parent peptide H2A.Z; normalized to histone norm peptide, log2
# T1 construct: endogenous in cells; host or cells: HEK293T (chromatin digested with MNase, glycerol gradient)
# T1 sequence (P0C0S5 whole entry): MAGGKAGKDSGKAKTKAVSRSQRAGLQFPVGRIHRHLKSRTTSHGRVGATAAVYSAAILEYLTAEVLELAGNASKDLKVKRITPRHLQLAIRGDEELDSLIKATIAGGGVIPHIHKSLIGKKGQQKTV
# Description: (§2) Mammalian mono-nucleosomes purified from MBP-SSX1 78aa pull downs along with representative input samples were prepared and analyzed by the targeted mass spectrometry pipeline described previously (Creech et al. (2015) Methods 72:57-64). Briefly, samples were prepared by histone extraction by acid precipitation followed by protein digestion from incubation with trypsin. To these prepared samples, synthesized isotopically labeled peptides of histone tails with numerous modifications were added at a known quantity. Each sample was then separated using a Proxeon EASY-nLC™ 1000 UHPLC system (Thermo Scientific) and detected with a Q Exactive™ mass spectrometer (Thermo Scientific). The fold change in abundance of each histone peptide from the input sample compared to the pull down was calculated from the light:heavy ratio in detected peak size.
# [6] = target: T2, mammalian mononucleosomes from HEK-293T cells (Homo sapiens, UniProt P62805); assay: as above; assay type: binding; settings: SSX1 pulldown, parent peptide H4K20
# T2 construct: endogenous in cells; host or cells: HEK293T (chromatin digested with MNase, glycerol gradient)
# Description: as §2
# [7] = tested on: mammalian mononucleosomes from HEK-293T cells; assay: as above; assay type: binding, human; settings: SSX1 pulldown
# Description: as §2
# mononucleosomes = mononucleosomes (Homo sapiens, UniProt O60814+P04908); assay: Peptide competition experiments; assay type: binding; settings: SSX 34aa versus SMARCB1 aa351-385
# [8] = HEK293T nucleosomes, normalized to histone norm peptide, log2
# [9] = HEK293T nucleosomes, parent peptide H2AK5K9, normalized to histone norm peptide, log2
# [10] = HEK293T nucleosomes, parent peptide H2AK13K15, normalized to histone norm peptide, log2
# [11] = HEK293T nucleosomes, parent peptide H2B, normalized to histone norm peptide, log2
# [12] = HEK293T nucleosomes, parent peptide H3K4, normalized to histone norm peptide, log2
# [13] = HEK293T nucleosomes, parent peptide H3K9K14, normalized to histone norm peptide, log2
# [14] = HEK293T, parent peptide H2AK5K9
# [15] = HEK293T, parent peptide H3K9K14
substance,measurement,setting,value
SSX aa155-188: N-terminally biotinylated peptide of the conserved 34aa region of SSX,nucleosome binding in pull-down,[1],sufficient for SSX nucleosome binding
same,histone-SSX crosslinks across the acidic patch,nucleosome acidic patch,most prominently at positions H2A E56 and H2B E113
same,labeling of Barr bodies by biotinylated peptide,IMR90 fibroblasts,Clear labeling of Barr bodies
GST-SSX 78aa: GST-tagged recombinant C-terminal 78 residues of SSX1 (aa 111-188),nucleosome binding in pull-down,[1],sufficient for its nucleosomal interactions
same,"binding to mammalian versus recombinant, unmodified nucleosomes",[1]; pull-down,"stronger than binding to recombinant, unmodified nucleosomes"
same,"affinity to H2A K119Ub-decorated nucleosomes, pulldown",[2]; H3 immunoblot,significantly higher affinity to H2A K119Ub-decorated nucleosomes relative to unmodified nucleosomes or H2B K120Ub nucleosomes
same,binding across differentially-marked recombinant and mammalian nucleosomes,[2]; screen of modified mononucleosomes,preferentially bound to H2A K119Ub and mammalian nucleosomes over unmodified nucleosomes or nucleosomes with other histone marks
same,binding to acidic patch-mutant nucleosomes,[3],near complete loss of SSX binding
same,"affinity to H2A K119Ub-decorated nucleosomes, AlphaLisa",[4],significantly higher affinity to H2A K119Ub-decorated nucleosomes relative to unmodified nucleosomes or H2B K120Ub nucleosomes
SS18-SSX: SS18 aa 1-379 fused to the C-terminal 78 aa of SSX1 (SEQ ID NO: 225),localization / recruitment to Barr bodies,Barr bodies (inactive X),strong colocalization
same,proliferation of SS cells with shSSX knockdown of endogenous SS18-SSX,SYO-1 SS cells,rescued proliferation
SSX1,log2norm (Light/Heavy) intensity ratio of H2AZ(1to19)K4ac1,[5],−0.217 and 0.048
same,log2norm (Light/Heavy) intensity ratio of H2AZ(1to19)ac0,[5],−0.784 and −0.697
same,log2norm (Light/Heavy) intensity ratio of H4(20to23)K20me0,[6]; [8],0.017 and 0.092
same,log2norm (Light/Heavy) intensity ratio of H4(20to23)K20me1,[6]; [8],−0.427 and −0.443
same,log2norm (Light/Heavy) intensity ratio of H4(20to23)K20me2,[6]; [8],−0.414 and −0.391
same,log2norm (Light/Heavy) intensity ratio of H4(20to23)K20me3,[6]; [8],−0.109 and 0.055
same,H4(20to23)K20me1 norm to ctrl avg,[6]; HEK293T,0.211 and 0.195
same,H4(20to23)K20me2 norm to ctrl avg,[6]; HEK293T,0.024 and 0.047
same,log2norm (Light/Heavy) intensity ratio of H2A(4to11)K5ac1,[7]; [9],0.569 and 0.624
same,log2norm (Light/Heavy) intensity ratio of H2A(4to11)K5ac1K9ac1,[7]; [9],−0.031 and −0.049
same,log2norm (Light/Heavy) intensity ratio of H2A(4to11)K9ac1,[7]; [9],−0.254 and −0.375
same,log2norm (Light/Heavy) intensity ratio of H2A(4to11)ac0,[7]; [9],−0.026 and 0.061
same,log2norm (Light/Heavy) intensity ratio of H2A(12to17)K13ac1,[7]; [10],0.032 and −0.047
same,log2norm (Light/Heavy) intensity ratio of H2A(12to17)K15ac1,[7]; [10],0.042 and −0.086
same,log2norm (Light/Heavy) intensity ratio of H2B(1to29)K5ac1,[7]; [11],0.273 and 0.323
same,log2norm (Light/Heavy) intensity ratio of H2B(1to29)ac0,[7]; [11],0.152 and 0.160
same,log2norm (Light/Heavy) intensity ratio of H3K4ac1,[7]; [12],0.263 and 0.320
same,log2norm (Light/Heavy) intensity ratio of H3K4me0,[7]; [12],0.549 and 0.339
same,log2norm (Light/Heavy) intensity ratio of H3K4me2,[7]; [12],0.778 and 0.532
same,log2norm (Light/Heavy) intensity ratio of H3K4me3,[7]; [12],0.766 and 0.505
same,log2norm (Light/Heavy) intensity ratio of H3K9me1S10ph1K14ac1,[7]; [13],−2.668 and −2.507
same,log2norm (Light/Heavy) intensity ratio of H3K9me2S10ph1K14ac1,[7]; [13],−0.870 and −1.009
same,log2norm (Light/Heavy) intensity ratio of H3K79me2,"[7]; HEK293T nucleosomes, parent peptide H3K79, normalized to histone norm peptide, log2",0.826 and 0.557
same,H2A(4to11)K5ac1K9ac1 norm to ctrl avg,[7]; [14],0.050 and 0.032
same,H2A(4to11)K9ac1 norm to ctrl avg,[7]; [14],0.404 and 0.283
same,H2A(12to17)K13ac1 norm to ctrl avg,"[7]; HEK293T, parent peptide H2AK13K15",0.266 and 0.188
same,H2B(1to29)K5ac1 norm to ctrl avg,"[7]; HEK293T, parent peptide H2B",0.154 and 0.203
same,H2B(1to29)ac0 norm to ctrl avg,"[7]; HEK293T, parent peptide H2B",0.191 and 0.199
same,H3K4me0 norm to ctrl avg,"[7]; HEK293T, parent peptide H3K4",0.514 and 0.304
same,H3K9me1S10ph1K14ac1 norm to ctrl avg,[7]; [15],0.290 and 0.451
same,H3K9me2S10ph1K14ac0 norm to ctrl avg,[7]; [15],1.301 and 0.892
same,H3K9me2S10ph1K14ac1 norm to ctrl avg,[7]; [15],1.152 and 1.012
"SMARCB1 C-term alpha helix: peptide of the SMARCB1 C-terminal alpha helical domain, aa 351-385",reciprocal competition for nucleosome acidic patch binding,mononucleosomes,unable to outcompete SSX from binding the nucleosomes
